Source: the NIST ThermoML archive (doi:10.1021/je100725a)
Numbers after ± are expanded uncertainties.

Tests used:
[1] = Molar enthalpy of transition or fusion; details: Crystal; DSC
[2] = Crystal

Compound	Molar enthalpy of transition or fusion [1] [kcal/mol]	Normal melting temperature [2] [°C]	Normal melting temperature ([2]; DTA) [°C]
CCCCCCCCCCC(C)=O [2-dodecanone]	9.44 ± 0.201	21 ± 0.6	21.12 ± 0.39
CCCCCC(C)=O [2-heptanone]	4.56 ± 0.108	-36 ± 0.6	-36.6 ± 0.4
CCCCCCCC(C)=O [2-nonanone]	6.54 ± 0.146	-9.8 ± 0.6	-9.47 ± 0.39
CCCCCCCCCCCC(C)=O [2-tridecanone]	10.5 ± 0.222	27.7 ± 0.6	28.60 ± 0.39
CCCCCCCCCC(C)=O [2-undecanone]	–	11.7 ± 0.6	12.11 ± 0.39
CCCCCCCCCCO [decan-1-ol]	7.5 ± 0.165	6.4 ± 0.6	–
CCCCCCCCCCCCO [dodecan-1-ol]	9.02 ± 0.194	23.5 ± 0.6	–
CCCCCCCCO [octan-1-ol]	5.66 ± 0.129	-14.5 ± 0.6	–
